This passage reports IC70 results from patent US10045983B2, “Heteroaryl pyridone and aza-pyrodine compounds” (Genentech, Inc., priority 2011, dated 2018).

Usually IC70 stands for the concentration at which the effect reaches the 70% level.

The assay is described as follows: CD69 Whole Blood Assay (CD69 Hu Blood FACS). Format: cell-based, human. The settings on record: Lymphocyte; human whole blood, anti-IgM activated B lymphocytes, FACS; IC70; Table 2 (unit inferred); read-out: CD69 Hu Blood FACS (IC70). The essentials: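 Human whole blood stimulated by crosslinking surface IgM with goat F(ab′)2 anti-human IgM; inhibition of CD69 expression on B lymphocytes measured by flow cytometry.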
Consider `COCCN1CCn2nc(Nc3cc(-c4ccnc(N5CCn6c(cc7c6CC(C)(C)C7)C5=O)c4CO)c(C)n(C)c3=O)cc2C1` [Example 327, 3-[3-(hydroxymethyl)-4-[5-[[5-(2-methoxyethyl)-6,7-dihydro-4H-pyrazolo[1,5-a]pyrazin-2-yl]amino]-1,2-dimethyl-6-oxo-3-pyridyl]-2-pyridyl]-7,7-dimethyl-1,2,6,8-tetrahydrocyclopenta[3,4]pyrrolo[3,5-b]pyrazin-4-one], for which the concentration for an effect of 70% (IC70) came to 2200 nM.

As to `COCCN1CCn2nc(Nc3cc(-c4cncc(N5CCn6c(cc7c6CC(C)(C)C7)C5=O)c4CO)cn(C)c3=O)cc2C1` [Example 328, 3-[4-(hydroxymethyl)-5-[5-[[5-(2-methoxyethyl)-6,7-dihydro-4H-pyrazolo[1,5-a]pyrazin-2-yl]amino]-1-methyl-6-oxo-3-pyridyl]-3-pyridyl]-7,7-dimethyl-1,2,6,8-tetrahydrocyclopenta[3,4]pyrrolo[3,5-b]pyrazin-4-one], the IC70 stood at 12.4 nM.

`COCCN1CCn2nc(Nc3cc(-c4nccc(N5CCn6c(cc7c6CC(C)(C)C7)C5=O)c4CO)cn(C)c3=O)cc2C1` [Example 329, 3-[3-(hydroxymethyl)-2-[5-[[5-(2-methoxyethyl)-6,7-dihydro-4H-pyrazolo[1,5-a]pyrazin-2-yl]amino]-1-methyl-6-oxo-3-pyridyl]-4-pyridyl]-7,7-dimethyl-1,2,6,8-tetrahydrocyclopenta[3,4]pyrrolo[3,5-b]pyrazin-4-one]: the IC70 is 110 nM.

As to `Cn1nc(-c2ccnc(N3CCc4c(sc5c4CC(C)(C)C5)C3=O)c2CO)cc(Nc2cc3n(n2)CC(C)(C)OC3)c1=O` [Example 330, 3-[4-[5-[(6,6-dimethyl-4,7-dihydropyrazolo[5,1-c][1,4]oxazin-2-yl)amino]-1-methyl-6-oxo-pyridazin-3-yl]-3-(hydroxymethyl)-2-pyridyl]-7,7-dimethyl-1,2,6,8-tetrahydrocyclopenta[3,4]thieno[1,3-c]pyridin-4-one], the IC70 amounted to 235 nM.

`CCc1nnc(Nc2cc(-c3ccnc(N4CCn5c(cc6c5CC(C)(C)C6)C4=O)c3CO)cn(C)c2=O)s1` [Example 332, 3-[4-[5-[(5-ethyl-1,3,4-thiadiazol-2-yl)amino]-1-methyl-6-oxo-3-pyridyl]-3-(hydroxymethyl)-2-pyridyl]-7,7-dimethyl-1,2,6,8-tetrahydrocyclopenta[3,4]pyrrolo[3,5-b]pyrazin-4-one]: the IC70 was found to be 91.9 nM.

Consider `Cn1cc(Nc2cc(-c3ccnc(N4CCc5c(sc6c5CC(C)(C)C6)C4=O)c3CO)cn(C)c2=O)nn1` [Example 333, 3-[3-(hydroxymethyl)-4-[1-methyl-5-[(1-methyltriazol-4-yl)amino]-6-oxo-3-pyridyl]-2-pyridyl]-7,7-dimethyl-1,2,6,8-tetrahydrocyclopenta[3,4]thieno[1,3-c]pyridin-4-one], for which the IC70 was determined as 209 nM.

With `Cn1cc(-c2ccnc(-n3ncc4c5c(sc4c3=O)CC(C)(C)C5)c2CO)cc(Nc2cc3n(n2)CC(C)(C)OC3)c1=O` [Example 335, 3-[4-[5-[(6,6-dimethyl-4,7-dihydropyrazolo[5,1-c][1,4]oxazin-2-yl)amino]-1-methyl-6-oxo-3-pyridyl]-3-(hydroxymethyl)-2-pyridyl]-7,7-dimethyl-6,8-dihydrocyclopenta[3,4]thieno[1,3-d]pyridazin-4-one], the IC70 was 52.8 nM.

Consider `COCc1cc(Nc2cc(-c3ccnc(N4CCc5c(cc6n5CCCC6)C4=O)c3CO)cn(C)c2=O)nn1C` [Example 336, 2-[3-(hydroxymethyl)-4-[5-[[5-(methoxymethyl)-1-methyl-pyrazol-3-yl]amino]-1-methyl-6-oxo-3-pyridyl]-2-pyridyl]-3,4,6,7,8,9-hexahydropyrido[3,4-b]indolizin-1-one], for which the IC70 came to 330 nM.

Regarding `Cc1nc(Nc2cc(-c3ccnc(N4CCn5c(cc6c5CC(C)(C)C6)C4=O)c3CO)cn(C)c2=O)cn1C` [Example 337, 3-[4-[5-[(1,2-dimethylimidazol-4-yl)amino]-1-methyl-6-oxo-3-pyridyl]-3-(hydroxymethyl)-2-pyridyl]-7,7-dimethyl-1,2,6,8-tetrahydrocyclopenta[3,4]pyrrolo[3,5-b]pyrazin-4-one], the IC70 came out at 613 nM.

With `Cn1cc(-c2ccnc(N3CCn4c(cc5c4CC(C)(C)C5)C3=O)c2CO)cc(Nc2cc3n(n2)CCN(CCC#N)C3)c1=O` [Example 338, 3-[2-[[5-[2-(7,7-dimethyl-4-oxo-1,2,6,8-tetrahydrocyclopenta[3,4]pyrrolo[3,5-b]pyrazin-3-yl)-3-(hydroxymethyl)-4-pyridyl]-1-methyl-2-oxo-3-pyridyl]amino]-6,7-dihydro-4H-pyrazolo[155-a]pyrazin-5-yl]propanenitrile], the IC70 is 17.8 nM.

In the case of `COCCN1CCN(c2ccc(Nc3cc(-c4ccnc(N5CCn6c(cc7c6CC(C)(C)C7)C5=O)c4CO)cn(C)c3=O)nc2)CC1` [Example 339, 3-[3-(hydroxymethyl)-4-[5-[[5-[4-(2-methoxyethyl)piperazin-1-yl]-2-pyridyl]amino]-1-methyl-6-oxo-3-pyridyl]-2-pyridyl]-7,7-dimethyl-1,2,6,8-tetrahydrocyclopenta[3,4]pyrrolo[3,5-b]pyrazin-4-one], the IC70 stood at 53.5 nM.

As for `COCCN1CCN(c2ccc(Nc3cc(-c4ccnc(N5CCn6c(cc7c6CC(C)(C)C7)C5=O)c4CO)cn(C)c3=O)nc2)[C@@H](C)C1` [Example 340, 3-[3-(hydroxymethyl)-4-[5-[[5-[(2S)-4-(2-methoxyethyl)-2-methyl-piperazin-1-yl]-2-pyridyl]amino]-1-methyl-6-oxo-3-pyridyl]-2-pyridyl]-7,7-dimethyl-1,2,6,8-tetrahydrocyclopenta[3,4]pyrrolo[3,5-b]pyrazin-4-one], the IC70 stood at 20.7 nM.
